{"source": "paper PMC6101361", "about": "(PLoS ONE, 2018)", "origin": "cited, not measured here", "test_system": "anti-ß1EC2-induced heart failure in rats", "conditions": "daily applications; ref [20]", "description": "The observed trend to ...", "data": [{"compound": "CC(C)NCC(O)COc1ccc(COCCOC(C)C)cc1", "note": "(stereo not shown) [bisoprolol]", "values": [{"measurement": "effect on anti-ß1EC2–induced heart failure", "result": "only delayed progression of anti-ß1EC2–induced heart failure"}]}]}
